Laboratory results: paper PMC11002876, “KcsA-Kv1.x chimeras with complete ligand-binding sites provide improved predictivity for screening selective Kv1.x blockers” (The Journal of Biological Chemistry, 2024)
Residue numbers refer to the chain shown, from its start.

Tests used:
[1] = biological target: T1, KcsA-Kv1.3 T-only chimera (Streptomyces lividans, UniProt P0A334, A54D/A57S/G53D/G56T/I60S/L59F/Q58G/R52A/R64D/T61S/Y62I); test: Phage-binding competition assay, KcsA-Kv1.3 T-only; parameters: species or system human Kv1.3 turret in Streptomyces lividans KcsA
T1 construct: made in house; host or cells: E. coli XL1-Blue (pQE30)
T1 sequence (P0A334 1-160 R52A/G53D/A54D/G56T/A57S/Q58G/L59F/I60S/T61S/Y62I/R64D): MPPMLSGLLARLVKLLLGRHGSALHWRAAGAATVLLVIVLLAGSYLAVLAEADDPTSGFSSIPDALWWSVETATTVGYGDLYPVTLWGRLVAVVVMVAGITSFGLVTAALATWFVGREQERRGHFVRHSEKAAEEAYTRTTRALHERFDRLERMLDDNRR
Experimental: (§1) Phage stock solutions were diluted to working concentration with phage resuspension buffer supplemented with 2 mM DDM. For protein immobilization, the following amounts were used in a final volume of 50 μl/well: wt KcsA, 0.1 μg; KcsA-Kv1.1 T-only, 0.005 μg; KcsA-Kv1.1 T+F, 0.02 μg; KcsA-Kv1.2 T-only, 0.01 μg; KcsA-Kv1.2 T+F, 0.1 μg; KcsA-Kv1.3 T-only, 0.01 μg; and KcsA-Kv1.3 T+F, 0.1 μg. Protein samples were diluted in 50 μl of storage buffer (20 mM Tris pH8.0, 300 mM KCl, 2 mM DDM) and were added to the designated wells of a Pierce Clear, 96-Well Nickel Coated Plate (15442, Thermo Fisher Scientific), then incubated for 1 h at room temperature on a horizontal shaker at 130 rpm. The plate was blocked for 1 h at room temperature with 180 μl/well TBS-BSA supplemented with 1 mM DDM. Following blocking, the wells were washed 4× with washing buffer (300 μl TBS-Tween, 0.1% v/v) using a Wellwash Versa microplate washer (Thermo Fisher Scientific); then 50 μl phage solution (in TBS-BSA-Tween, 0.1% v/v, 2 mM DDM) at determined phage concentration was added to the wells and incubated for 1 h at room temperature on a horizontal shaker. The plate was washed 4× with washing buffer, then 50 μl anti-M13 IgG HRP (MA5-36125, Invitrogen) diluted to 1:2500 in TBS-Tween (0.1% v/v) was added to the wells and incubated for 1 h at room temperature. The plate was washed again 4× with 300 μl/well washing buffer. Finally, 50 μl/well 1-Step Ultra TMB-ELISA solution (34028, Thermo Fisher Scientific) was added to the wells, and the developing signal was stopped with 50 μl 1M HCl after 5 to 10 min. The light absorbance signal was read at 450 nm with Byonoy absorbance 96 plate reader (Byonoy GmbH).
(§2) For protein immobilization, the following amounts were used in a final volume of 50 μl/well: KcsA-Kv1.1 T-only, 0.005 μg; KcsA-Kv1.1 T+F, 0.01 μg; KcsA-Kv1.2 T-only, 0.025 μg; KcsA-Kv1.2 T+F, 0.0125 μg; KcsA-Kv1.3 T-only, 0.01 μg; and KcsA-Kv1.3 T+F, 0.1 μg. Protein samples were diluted in storage buffer. Binding of given concentrations of relevant ligand-displaying phages quantified by light absorbance ([…]) were investigated in a similar manner as in phage ELISA-binding assay, while different concentrations of competing toxin test substances were applied simultaneously. The results were converted to percent inhibitions (percent displacement) of the indicator phage binding, and relative affinities of the tested toxins were assessed by plotting percent displacements against log concentrations and determining half maximal inhibitory concentrations (IC50) by sigmoidal curve fitting using “Sigmoidal dose-response (variable slope) with least squares method” algorithm in GraphPad Prism 8 using the following equation: Y=Bottom+Top−Bottom/1+10^(LogEC50−×)⋅HillSlope

KcsA-Kv1.2 T+F chimera [2] = biological target: T2, KcsA-Kv1.2 T+F chimera (Streptomyces lividans, UniProt P0A334, A54E/A57S/G53D/G56E/I60P/L59F/L81M/P55R/R52A/R64D/T61S/V84T/Y62I/Y82V); test: Phage-binding competition assay, KcsA-Kv1.2 T+F; parameters: species or system human Kv1.2 turret and filter in Streptomyces lividans KcsA; conditions: displacement of HgTx1-phage; KcsA-Kv1.2 T+F 0.0125 μg/well on nickel-coated plate; mean ± SD (n = 3); read-out: IC50, T+F chimera (Kv1.2)
T2 sequence (P0A334 1-160 R52A/G53D/A54E/P55R/G56E/A57S/L59F/I60P/T61S/Y62I/R64D/L81M/Y82V/V84T): T1 sequence (P0A334 1-160 R52A/G53D/A54D/G56T/A57S/Q58G/L59F/I60S/T61S/Y62I/R64D) with D54E, P55R, T56E, G58Q, S60P, L81M, Y82V, V84T
Experimental: as §1, §2

KcsA-Kv1.2 T+F chimera [3] = biological target: T3, KcsA-Kv1.2 T+F chimera (Streptomyces lividans, UniProt P0A334, R52A/G53D/A54E/P55R/G56E/A57S/L59F/I60P/T61S/Y62I/R64D/L81M/Y82V/V84T); test: Phage-binding competition assay, KcsA-Kv1.2 T+F; parameters: species or system human Kv1.2 turret and filter in Streptomyces lividans KcsA; conditions: rank by competition IC50 among MTX, ShK, KTX1
T3 sequence (P0A334 1-160 R52A/G53D/A54E/P55R/G56E/A57S/L59F/I60P/T61S/Y62I/R64D/L81M/Y82V/V84T): T1 sequence (P0A334 1-160 R52A/G53D/A54D/G56T/A57S/Q58G/L59F/I60S/T61S/Y62I/R64D) with D54E, P55R, T56E, G58Q, S60P, L81M, Y82V, V84T
Experimental: as §1, §2

human Kv1.2 = human Kv1.2 channel blocking, patch-clamp; read-out: IC50, Kv1.x blocking (Kv1.2); cited from earlier work
Experimental: Elution was done at 1 ml/min flow rate. Eluted peak fractions (1 ml) were analyzed by SDS-PAGE, then pooled and concentrated. The concentration of the purified protein was determined by measuring the UV absorbance at 280 nm using the protein extinction coefficient calculator in the ProtParam tool of Ex ...

human Kv1.1 = human Kv1.1 channel blocking, patch-clamp; read-out: IC50, Kv1.x blocking (Kv1.1); cited from earlier work

Structure (SMILES): CC[C@H](C)[C@H](NC(=O)[C@H](CCC(=O)O)NC(=O)[C@@H](NC(=O)CN)C(C)C)C(=O)N[C@@H](CC(N)=O)C(=O)N[C@H](C(=O)N[C@@H](CCCCN)C(=O)N[C@H]1CSSC[C@@H]2NC(=O)[C@H](CCCCN)NC(=O)CNC(=O)[C@H](Cc3ccccc3)NC(=O)[C@H](CCCNC(=N)N)NC(=O)[C@H](CCSC)NC(=O)CNC(=O)[C@H](C)NC(=O)[C@H](CC(=O)O)NC(=O)[C@H](CCCCN)NC(=O)[C@@H]3CSSC[C@@H](C(=O)N[C@H](C(=O)N4CCC[C@H]4C(=O)N[C@@H](CCCCN)C(=O)O)[C@@H](C)O)NC(=O)[C@H](Cc4c[nH]cn4)NC(=O)[C@H](CSSC[C@H](NC(=O)[C@H](CCC(N)=O)NC(=O)[C@@H]4CCCN4C(=O)[C@H](CO)NC(=O)CNC(=O)[C@H](CO)NC1=O)C(=O)N[C@@H](CC(C)C)C(=O)N[C@@H](CCCCN)C(=O)N1CCC[C@H]1C(=O)N3)NC(=O)[C@H](CCCCN)NC(=O)[C@H](CCCNC(=N)N)NC(=O)[C@H](CC(N)=O)NC(=O)[C@H](CCSC)NC2=O)C(C)C [KTX1, Kaliotoxin-1]
- IC50 ([1]; HgTx1-phage competition, T-only KcsA-Kv1.3, value given in figure, sigmoidal fit to means of three replicates, read-out: IC50 (Fig. 6E)): 0.416 nM
- Rank, T-only chimera (Kv1.3) ([1]; rank by competition IC50 among Vm24, HgTx1, KTX1): 1
- IC50 (KcsA-Kv1.2 T+F chimera [2]): 205 nM
- Rank, T+F chimera (Kv1.2) (KcsA-Kv1.2 T+F chimera [3]): 3
- IC50 (human Kv1.2): > 1000 nM
- IC50 (human Kv1.1): 1.1 to 41 nM
